Experimental data from the NIST ThermoML archive (doi:10.1016/j.tca.2014.06.031).
± gives the expanded uncertainty stated by the source.

What was measured:
[1] = refractive index (Na D-line) (dimensionless); xn = mol fraction of the nth substance listed; conditions: 101 kPa, Liquid, Standard Abbe refractometry
[2] = xn = mol fraction of the nth substance listed; conditions: 101 kPa, Liquid; for speed of sound: Frequency=3 MHz, Sing-around technique in a fixed-path interferometer; for mass density: Vibrating tube method

CCCCCCC(=O)O [heptanoic acid] + CCCCC(=O)O
Conditions	mass density, [2] [kg/m3]	refractive index, [1]	speed of sound, [2] [m/s]
293.15 K, x1 = 0.0641	937.59 ± 0.72	1.4099 ± 0.0005	1238.8 ± 2.3
293.15 K, x1 = 0.1207	936.02 ± 0.68	1.4111 ± 0.00049	1242.9 ± 2.2
293.15 K, x1 = 0.2317	933.14 ± 0.61	1.41293 ± 0.00047	1250.6 ± 2.1
293.15 K, x1 = 0.3413	930.46 ± 0.54	1.41469 ± 0.00045	1257.9 ± 2
293.15 K, x1 = 0.4383	928.25 ± 0.48	1.41617 ± 0.00044	1264.1 ± 2
293.15 K, x1 = 0.5402	926.08 ± 0.43	1.4176 ± 0.00043	1270.3 ± 1.9
293.15 K, x1 = 0.6442	923.97 ± 0.38	1.41903 ± 0.00041	1276.3 ± 1.8
293.15 K, x1 = 0.7342	922.25 ± 0.33	1.42021 ± 0.0004	1281.4 ± 1.7
293.15 K, x1 = 0.8259	920.58 ± 0.3	1.42135 ± 0.00039	1286.4 ± 1.7
293.15 K, x1 = 0.9173	919 ± 0.26	1.42244 ± 0.00038	1291.2 ± 1.6
293.15 K, x1 = 0.962	918.26 ± 0.25	1.42297 ± 0.00037	1293.4 ± 1.6
293.15 K, x1 = 1	917.65 ± 0.23	1.42336 ± 0.00037	1295.4 ± 1.5
298.15 K, x1 = 0.0641	933.06 ± 0.72	1.40789 ± 0.0005	1220.8 ± 2.3
298.15 K, x1 = 0.1207	931.51 ± 0.68	1.40904 ± 0.00049	1225 ± 2.2
298.15 K, x1 = 0.2317	928.68 ± 0.6	1.41092 ± 0.00047	1232.8 ± 2.1
298.15 K, x1 = 0.3413	926.05 ± 0.53	1.41267 ± 0.00045	1240.1 ± 2
298.15 K, x1 = 0.4383	923.88 ± 0.48	1.41413 ± 0.00044	1246.3 ± 2
298.15 K, x1 = 0.5402	921.74 ± 0.42	1.41562 ± 0.00043	1252.5 ± 1.9
298.15 K, x1 = 0.6442	919.68 ± 0.37	1.41705 ± 0.00041	1258.6 ± 1.8
298.15 K, x1 = 0.7342	917.98 ± 0.33	1.4182 ± 0.0004	1263.7 ± 1.7
298.15 K, x1 = 0.8259	916.35 ± 0.3	1.41936 ± 0.00039	1268.7 ± 1.7
298.15 K, x1 = 0.9173	914.79 ± 0.26	1.42048 ± 0.00038	1273.5 ± 1.6
298.15 K, x1 = 0.962	914.07 ± 0.25	1.42099 ± 0.00037	1275.8 ± 1.6
298.15 K, x1 = 1	913.47 ± 0.23	1.42138 ± 0.00037	1277.7 ± 1.5
303.15 K, x1 = 0.0641	928.52 ± 0.71	1.40585 ± 0.0005	1202.7 ± 2.3
303.15 K, x1 = 0.1207	926.99 ± 0.67	1.40698 ± 0.00049	1206.9 ± 2.2
303.15 K, x1 = 0.2317	924.22 ± 0.6	1.40886 ± 0.00047	1214.7 ± 2.1
303.15 K, x1 = 0.3413	921.64 ± 0.53	1.41062 ± 0.00045	1222.1 ± 2
303.15 K, x1 = 0.4383	919.51 ± 0.48	1.41208 ± 0.00044	1228.3 ± 1.9
303.15 K, x1 = 0.5402	917.4 ± 0.42	1.41356 ± 0.00043	1234.6 ± 1.9
303.15 K, x1 = 0.6442	915.38 ± 0.37	1.41498 ± 0.00041	1240.7 ± 1.8
303.15 K, x1 = 0.7342	913.71 ± 0.33	1.4162 ± 0.0004	1245.8 ± 1.7
303.15 K, x1 = 0.8259	912.11 ± 0.3	1.41733 ± 0.00039	1250.8 ± 1.7
303.15 K, x1 = 0.9173	910.58 ± 0.26	1.41842 ± 0.00038	1255.7 ± 1.6
303.15 K, x1 = 0.962	909.87 ± 0.25	1.41896 ± 0.00037	1257.9 ± 1.6
303.15 K, x1 = 1	909.29 ± 0.23	1.41935 ± 0.00037	1259.9 ± 1.5
308.15 K, x1 = 0.0641	923.98 ± 0.71	1.40383 ± 0.0005	1184.8 ± 2.3
308.15 K, x1 = 0.1207	922.48 ± 0.67	1.40496 ± 0.00049	1189 ± 2.2
308.15 K, x1 = 0.2317	919.75 ± 0.59	1.40684 ± 0.00047	1196.9 ± 2.1
308.15 K, x1 = 0.3413	917.23 ± 0.53	1.40857 ± 0.00045	1204.2 ± 2
308.15 K, x1 = 0.4383	915.14 ± 0.47	1.41004 ± 0.00044	1210.5 ± 1.9
308.15 K, x1 = 0.5402	913.07 ± 0.42	1.41151 ± 0.00043	1216.8 ± 1.9
308.15 K, x1 = 0.6442	911.08 ± 0.37	1.41294 ± 0.00041	1223 ± 1.8
308.15 K, x1 = 0.7342	909.45 ± 0.33	1.41413 ± 0.0004	1228.1 ± 1.7
308.15 K, x1 = 0.8259	907.87 ± 0.29	1.41531 ± 0.00039	1233.1 ± 1.7
308.15 K, x1 = 0.9173	906.38 ± 0.26	1.41643 ± 0.00038	1238 ± 1.6
308.15 K, x1 = 0.962	905.68 ± 0.25	1.41695 ± 0.00037	1240.3 ± 1.6
308.15 K, x1 = 1	905.11 ± 0.23	1.41733 ± 0.00037	1242.2 ± 1.5
313.15 K, x1 = 0.0641	919.44 ± 0.7	1.40175 ± 0.0005	1167 ± 2.3
313.15 K, x1 = 0.1207	917.97 ± 0.66	1.40283 ± 0.00049	1171.2 ± 2.2
313.15 K, x1 = 0.2317	915.29 ± 0.59	1.40471 ± 0.00047	1179.1 ± 2.1
313.15 K, x1 = 0.3413	912.82 ± 0.53	1.40649 ± 0.00045	1186.6 ± 2
313.15 K, x1 = 0.4383	910.77 ± 0.47	1.40796 ± 0.00044	1192.9 ± 1.9
313.15 K, x1 = 0.5402	908.74 ± 0.42	1.40944 ± 0.00043	1199.2 ± 1.9
313.15 K, x1 = 0.6442	906.79 ± 0.37	1.41086 ± 0.00041	1205.4 ± 1.8
313.15 K, x1 = 0.7342	905.19 ± 0.33	1.41209 ± 0.0004	1210.5 ± 1.7
313.15 K, x1 = 0.8259	903.64 ± 0.29	1.41324 ± 0.00039	1215.6 ± 1.7
313.15 K, x1 = 0.9173	902.17 ± 0.26	1.41437 ± 0.00038	1220.4 ± 1.6
313.15 K, x1 = 0.962	901.49 ± 0.25	1.4149 ± 0.00037	1222.7 ± 1.6
313.15 K, x1 = 1	900.94 ± 0.24	1.4153 ± 0.00037	1224.7 ± 1.5
